We go through 7 compounds from ChEMBL document CHEMBL4130347, “Molecular topology: A new strategy for antimicrobial resistance control” (2017).

SMILES strings stand for the structures. In brackets after ≈: the same amount, converted by molar mass. Activity calls are given as the source filed them. The rule behind the calls is not given here.

The subject of assay [1] is Staphylococcus aureus. The experiment in a line: Antibacterial activity against methicillin-susceptible Staphylococcus aureus ATCC 25923 by microdilution method. The format is functional. A general note: Dilution methods test growth across graded concentrations, often in twofold steps.
Assay [2] relates to Staphylococcus aureus. The assay can be described thus: Antibacterial activity against methicillin-resistant Staphylococcus aureus ATCC 33591 by microdilution method. The format is functional.
Assay [3] relates to Staphylococcus epidermidis. The assay can be described thus: Antibacterial activity against Staphylococcus epidermidis ATCC 12228 by microdilution method. The assay is classed as functional, organism-based.
In the next assay the test system is Enterococcus faecalis. The assay can be described thus: Antibacterial activity against Enterococcus faecalis ATCC 51299 by microdilution method. The format is functional.
In a further assay the test system is Escherichia coli. The experiment in a line: Antibacterial activity against Escherichia coli ATCC 25922 by microdilution method. The format is functional, organism-based.
Assay [4] has as its system Staphylococcus aureus. The experiment in a line: Antibacterial activity against methicillin-resistant Staphylococcus aureus ATCC 33591 assessed as decrease in levels of viable bacteria at 2 times MIC after 4 hrs by time-kill assay. The format is functional.
Assay [5] has as its system Staphylococcus aureus. The experiment in a line: Antibacterial activity against methicillin-resistant Staphylococcus aureus ATCC 33591 assessed as decrease in levels of viable bacteria at 2 times MIC after 8 hrs by time-kill assay. The assay is classed as functional.
Assay [6] deals with Staphylococcus aureus. The experiment in a line: Antibacterial activity against methicillin-resistant Staphylococcus aureus ATCC 33591 assessed as decrease in levels of viable bacteria at 2 times MIC after 24 hrs by time-kill assay. The assay is classed as functional.
Assay [7] has as its system Staphylococcus aureus. The assay can be described thus: Antibacterial activity against methicillin-resistant Staphylococcus aureus ATCC 33591 assessed as growth inhibition after 48 hrs. The format is functional, organism-based.
Assay [8] deals with Bacteria. The experiment in a line: Inhibition of bacterial RecA expressed in Escherichia coli ATCC 25922 assessed as decrease in SOS induction at 50 uM after 8 hrs in presence of 0.25 times MIC of ciprofloxacin by fluorescence assay relative to control.
Assay [9] has as its system Bacteria. The assay can be described thus: Inhibition of bacterial RecA expressed in Escherichia coli ATCC 25922 harboring GyrA Ser83Leu mutant assessed as decrease in SOS induction at 50 uM after 8 hrs in presence of 0.25 times MIC of ciprofloxacin by fluorescence assay relative to control.
The test system of assay [10] is Bacteria. The assay can be described thus: Inhibition of bacterial RecA expressed in Escherichia coli ATCC 25922 harboring GyrA Ser83Leu mutant/ParC Ser80Arg mutant assessed as decrease in SOS induction at 50 uM after 8 hrs in presence of 0.25 times MIC of ciprofloxacin by fluorescence assay relative to control.
Assay [11] has as its system Bacteria. The experiment in a line: Inhibition of bacterial RecA expressed in Escherichia coli ATCC 25922 harboring GyrA Ser83Leu mutant/ParC Ser80Arg mutant/GyrA Asp87Asn mutant assessed as decrease in SOS induction at 50 uM after 8 hrs in presence of 0.25 times MIC of ciprofloxacin by fluorescence assay relative to control.
Assay [12] has as its system Bacteria. The assay can be described thus: Inhibition of bacterial RecA expressed in Escherichia coli ATCC 25922 harboring GyrA Ser83Leu mutant/ParC Ser80Arg mutant/GyrA Asp87Asn mutant/marR deletion mutant assessed as decrease in SOS induction at 50 uM after 8 hrs in presence of 0.25 times MIC of ciprofloxacin by fluorescence assay relative to control.

Regarding `COc1cc(C(=O)OCCn2c(N3CCN(CCO)CC3)nc3c2c(=O)n(C)c(=O)n3C)cc(OC)c1OC`, the MIC (in general, the lowest concentration found to suppress growth) with Staphylococcus aureus [1] was in the range of 16 to 128 µg/mL (≈ 29.3 to 234 µM); with Staphylococcus aureus [2] it was 16 to 128 µg/mL (≈ 29.3 to 234 µM); in the assay on Enterococcus faecalis it was 32 to 128 µg/mL (≈ 58.5 to 234 µM). In addition, the result in assay [3] was Active. In addition, the result in the assay on Escherichia coli was inactive.

For `NNc1ccc(S(=O)(=O)N2CCOCC2)cc1[N+](=O)[O-]`, the minimum inhibitory concentration (MIC) against Staphylococcus aureus [1] and against Staphylococcus aureus [2] was 16 to 128 µg/mL (≈ 52.9 to 423 µM) each time. Further, the outcome (in assay [3]; in the assay with Enterococcus faecalis) was Active. Moreover, the outcome in the assay on Escherichia coli was inactive.

Consider `COCCOC(=O)C1=C(C)OC(N)=C(C#N)C12C(=O)N(CC(=O)OC)c1ccccc12` (configuration not stated), for which the MIC is 16 to 128 µg/mL (≈ 37.4 to 299 µM) against Staphylococcus aureus [1], 16 to 128 µg/mL (≈ 37.4 to 299 µM) against Staphylococcus aureus [2] and 32 to 128 µg/mL (≈ 74.9 to 299 µM) in the assay on Enterococcus faecalis. The result in [3] was Active. The outcome in the assay on Escherichia coli was inactive.

Take `CCN(CC)CCN1C(=O)C(O)=C(C(=O)c2ccc(OC)cc2)C1c1ccc(C)o1` (configuration not stated): the MIC with Staphylococcus aureus [1] and in the assay with Staphylococcus aureus [2] was 16 to 128 µg/mL (≈ 38.8 to 310 µM) in each case. Besides, the outcome in assay [3] was Active. Moreover, the result in the assay on Enterococcus faecalis and in the assay on Escherichia coli was inactive. Further, the results for the Activity with Staphylococcus aureus [4], with Staphylococcus aureus [5] and in the assay on Staphylococcus aureus [6] were 1.5 deltalog10CFU/ml, 2.5 deltalog10CFU/ml and 4 deltalog10CFU/ml, respectively. Also, the “growth inhibition (GI)” value with Staphylococcus aureus [7] was “Dose-dependent effect”.

Consider `O=C(O)CSc1cc(NS(=O)(=O)c2ccc(Cl)cc2)c2ccccc2c1O`, for which the MIC against Staphylococcus aureus [1] and with Staphylococcus aureus [2] was 16 to 128 µg/mL (≈ 37.7 to 302 µM) each time. In the assay with Escherichia coli, the outcome was Active. Also, the inhibition with Bacteria [8], in the assay with Bacteria [9], with Bacteria [10], in the assay with Bacteria [11] and in the assay on Bacteria [12] was 31 to 47% throughout.

For `COc1cc(C(=O)OCCCn2c(=O)c3c(nc(N4CCN(CCO)CC4)n3C)n(C)c2=O)cc(O)c1OC`, the MIC against Staphylococcus aureus [1] and with Staphylococcus aureus [2] was 16 to 128 µg/mL (≈ 29.3 to 234 µM) throughout. In addition, the result (in assay [3]; with Enterococcus faecalis) was Active. In addition, the outcome in the assay on Escherichia coli was inactive.

As to `O=C(CCN1CCOCC1)NNC(=O)c1ccc([N+](=O)[O-])cc1[N+](=O)[O-]`, the MIC against Staphylococcus aureus [1] is 16 to 128 µg/mL (≈ 43.6 to 348 µM); against Staphylococcus aureus [2], 16 to 128 µg/mL (≈ 43.6 to 348 µM); against Enterococcus faecalis, 32 to 128 µg/mL (≈ 87.1 to 348 µM). Further, in assay [3], the outcome was Active. In addition, in the assay with Escherichia coli, the result was inactive.
